Source: ChEMBL document CHEMBL4828724 (Eur J Med Chem, 2021)

Key:
[1] = Metabolic stability in monkey liver microsomes assessed as parent compound remaining at 1 uM in the presence of NADPH measured after 60 mins by LC-MS/MS analysis; assay type: ADME, Macaca mulatta, Microsome; conditions: rhesus monkey, liver microsomes, read-out: Stability
[2] = Metabolic stability in mouse liver microsomes assessed as parent compound remaining at 1 uM in the presence of NADPH measured after 60 mins by LC-MS/MS analysis; assay type: ADME, Microsome; conditions: for remaining at 1 h, 1 µM: liver microsomes, read-out: Stability
[3] = Metabolic stability in human liver microsomes assessed as parent compound remaining at 1 uM in the presence of NADPH measured after 60 mins by LC-MS/MS analysis; assay type: ADME, Microsome; conditions: read-out: Stability
[4] = Metabolic stability in monkey liver microsomes assessed as intrinsic clearance at 1 uM in the presence of NADPH measured for 60 mins by LC-MS/MS analysis; assay type: ADME, Macaca mulatta, Microsome; conditions: rhesus monkey, read-out: CLH
[5] = Metabolic stability in mouse liver microsomes assessed as intrinsic clearance at 1 uM in the presence of NADPH measured for 60 mins by LC-MS/MS analysis; assay type: ADME, Microsome; conditions: read-out: CLH
[6] = Metabolic stability in human liver microsomes assessed as intrinsic clearance at 1 uM in the presence of NADPH measured for 60 mins by LC-MS/MS analysis; assay type: ADME, Microsome; conditions: read-out: CLH
[7] = target: T1, Synaptic vesicular amine transporter (Rattus norvegicus, UniProt Q01827); assay: Inhibition of [3H]DTBZ binding to VMAT2 in rat brain incubated for 30 mins by liquid scintillation spectrometry analysis; assay type: tissue-based
[8] = target: Synaptic vesicular amine transporter (Rattus norvegicus) (UniProt Q01827); assay: Inhibition of [3H]DA uptake at VMAT2 in rat striatal synaptosome at 1 uM incubated for 10 mins followed by [3H]DA addition and measured after 20 mins by TopCount scintillation counting method relative to control; assay type: subcellular; conditions: Striatum, time 30.0 min
[9] = target: Synaptic vesicular amine transporter (Rattus norvegicus) (UniProt Q01827); assay: Inhibition of [3H]DA uptake at VMAT2 in rat striatal synaptosome at 0.1 uM incubated for 10 mins followed by [3H]DA addition and measured after 20 mins by TopCount scintillation counting method relative to control; assay type: subcellular; conditions: Striatum, time 30.0 min
[10] = target: T1, Synaptic vesicular amine transporter; assay: Inhibition of [3H]DA uptake at VMAT2 in rat striatal synaptosome incubated for 10 mins followed by [3H]DA addition and measured after 20 mins by TopCount scintillation counting method; assay type: subcellular, Striatum
[11] = Metabolic stability in human liver microsomes assessed as half life at 1 uM in the presence of NADPH measured for 60 mins by LC-MS/MS analysis; assay type: ADME, Microsome
[12] = Metabolic stability in mouse liver microsomes assessed as half life at 1 uM in the presence of NADPH measured for 60 mins by LC-MS/MS analysis; assay type: ADME, Microsome
[13] = Metabolic stability in monkey liver microsomes assessed as half life at 1 uM in the presence of NADPH measured for 60 mins by LC-MS/MS analysis; assay type: ADME, Macaca mulatta, Microsome; conditions: rhesus monkey
[14] = target: Voltage-gated inwardly rectifying potassium channel KCNH2 (Homo sapiens, UniProt Q12809); assay: Inhibition of human ERG
[15] = Tmax in Sprague-Dawley rat at 10 umol/kg, ig administered as single dose measured for 12 hrs by LC-MS/MS analysis; assay type: ADME; conditions: in vivo, po, dose 10 µmol/kg
[16] = Cmax in Sprague-Dawley rat at 10 umol/kg, ig administered as single dose measured for 12 hrs by LC-MS/MS analysis; assay type: ADME; set-up: route […], time 12 hrs, dose 10 µmol/kg; conditions: in vivo, po
[17] = AUC (0 to infinity) in Sprague-Dawley rat at 10 umol/kg, ig administered as single dose by LC-MS/MS analysis; assay type: ADME; set-up: time infinity, route […], dose 10 µmol/kg; conditions: in vivo, po
[18] = Apparent volume of distribution during terminal phase in Sprague-Dawley rat at 10 umol/kg, ig administered as single dose measured after 12 hrs by LC-MS/MS analysis; assay type: ADME; conditions: in vivo, po, dose 10 µmol/kg, read-out: Vz/F
[19] = Clearance in Sprague-Dawley rat at 10 umol/kg, ig administered as single dose measured for 12 hrs by LC-MS/MS analysis; assay type: ADME; conditions: in vivo, po, dose 10 µmol/kg
[20] = Half life in Sprague-Dawley rat at 10 umol/kg, ig administered as single dose measured for 12 hrs by LC-MS/MS analysis; assay type: ADME; conditions: in vivo, po, dose 10 µmol/kg
Rattus norvegicus [21] = assay: Reduction in spontaneous locomotor activity in Sprague-Dawley rat at 3 umol/kg, po measured for 3 hrs; assay type: functional
Rattus norvegicus [22] = assay: Reduction in spontaneous locomotor activity in Sprague-Dawley rat at 15 umol/kg, po measured for 3 hrs; assay type: functional
[23] = Drug uptake in Sprague-Dawley rat brain at 5 umol/kg, ig measured after 2 hrs by LC-MS/MS analysis; assay type: ADME, tissue-based; conditions: in vivo, po, dose 5 µmol/kg
[24] = Ratio of drug level in Sprague-Dawley rat brain to blood at 5 umol/kg, ig measured after 6 hrs by LC-MS/MS analysis; assay type: ADME, tissue-based; conditions: po, dose 5 µmol/kg
Cytochrome P450 3A4 = Cytochrome P450 3A4 (Homo sapiens, UniProt P08684); assay: Inhibition of CYP3A4 (unknown origin); assay type: ADME
Cytochrome P450 2C9 = Cytochrome P450 2C9 (Homo sapiens, UniProt P11712); assay: Inhibition of CYP2C9 (unknown origin); assay type: ADME
Cytochrome P450 2D6 = Cytochrome P450 2D6 (Homo sapiens, UniProt P10635); assay: Inhibition of CYP2D6 (unknown origin); assay type: ADME
Cytochrome P450 2C19 = Cytochrome P450 2C19 (Homo sapiens, UniProt P33261); assay: Inhibition of CYP2C19 (unknown origin); assay type: ADME
Cytochrome P450 2B6 = target: T2, Cytochrome P450 2B6 (Homo sapiens, UniProt P20813); assay: Inhibition of CYP2B6 (unknown origin); assay type: ADME
T2 sequence (P20813 whole entry): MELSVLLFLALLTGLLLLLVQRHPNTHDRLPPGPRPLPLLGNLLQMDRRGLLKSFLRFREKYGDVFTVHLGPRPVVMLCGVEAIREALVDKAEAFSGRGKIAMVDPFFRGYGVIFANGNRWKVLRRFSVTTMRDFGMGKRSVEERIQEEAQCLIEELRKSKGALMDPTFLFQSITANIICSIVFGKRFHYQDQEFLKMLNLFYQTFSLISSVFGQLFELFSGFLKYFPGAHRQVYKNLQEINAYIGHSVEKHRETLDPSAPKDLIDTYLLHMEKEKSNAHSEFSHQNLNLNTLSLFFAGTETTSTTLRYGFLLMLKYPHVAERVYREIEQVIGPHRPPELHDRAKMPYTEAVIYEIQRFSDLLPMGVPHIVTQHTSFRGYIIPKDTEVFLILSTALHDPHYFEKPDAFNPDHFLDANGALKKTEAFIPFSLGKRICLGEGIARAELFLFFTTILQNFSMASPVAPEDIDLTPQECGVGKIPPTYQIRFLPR

Synaptic vesicular amine transporter (Rattus norvegicus), sequence (Q01827 whole entry): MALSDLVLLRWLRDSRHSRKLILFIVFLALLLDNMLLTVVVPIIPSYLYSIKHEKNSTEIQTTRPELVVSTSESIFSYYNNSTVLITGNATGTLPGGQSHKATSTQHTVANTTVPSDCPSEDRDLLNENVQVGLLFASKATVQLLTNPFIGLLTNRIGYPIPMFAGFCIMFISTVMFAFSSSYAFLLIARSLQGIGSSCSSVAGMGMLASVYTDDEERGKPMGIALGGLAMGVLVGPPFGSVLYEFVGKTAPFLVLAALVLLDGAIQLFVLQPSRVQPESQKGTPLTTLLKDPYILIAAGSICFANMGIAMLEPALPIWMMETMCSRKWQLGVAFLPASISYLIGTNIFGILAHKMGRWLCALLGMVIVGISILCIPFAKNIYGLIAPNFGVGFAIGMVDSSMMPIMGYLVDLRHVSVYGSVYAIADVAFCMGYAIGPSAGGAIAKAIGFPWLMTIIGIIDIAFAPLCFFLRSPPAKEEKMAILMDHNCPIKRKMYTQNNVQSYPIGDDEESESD
T1 sequence (Q01827 whole entry): as above
Voltage-gated inwardly rectifying potassium channel KCNH2, sequence (Q12809 whole entry): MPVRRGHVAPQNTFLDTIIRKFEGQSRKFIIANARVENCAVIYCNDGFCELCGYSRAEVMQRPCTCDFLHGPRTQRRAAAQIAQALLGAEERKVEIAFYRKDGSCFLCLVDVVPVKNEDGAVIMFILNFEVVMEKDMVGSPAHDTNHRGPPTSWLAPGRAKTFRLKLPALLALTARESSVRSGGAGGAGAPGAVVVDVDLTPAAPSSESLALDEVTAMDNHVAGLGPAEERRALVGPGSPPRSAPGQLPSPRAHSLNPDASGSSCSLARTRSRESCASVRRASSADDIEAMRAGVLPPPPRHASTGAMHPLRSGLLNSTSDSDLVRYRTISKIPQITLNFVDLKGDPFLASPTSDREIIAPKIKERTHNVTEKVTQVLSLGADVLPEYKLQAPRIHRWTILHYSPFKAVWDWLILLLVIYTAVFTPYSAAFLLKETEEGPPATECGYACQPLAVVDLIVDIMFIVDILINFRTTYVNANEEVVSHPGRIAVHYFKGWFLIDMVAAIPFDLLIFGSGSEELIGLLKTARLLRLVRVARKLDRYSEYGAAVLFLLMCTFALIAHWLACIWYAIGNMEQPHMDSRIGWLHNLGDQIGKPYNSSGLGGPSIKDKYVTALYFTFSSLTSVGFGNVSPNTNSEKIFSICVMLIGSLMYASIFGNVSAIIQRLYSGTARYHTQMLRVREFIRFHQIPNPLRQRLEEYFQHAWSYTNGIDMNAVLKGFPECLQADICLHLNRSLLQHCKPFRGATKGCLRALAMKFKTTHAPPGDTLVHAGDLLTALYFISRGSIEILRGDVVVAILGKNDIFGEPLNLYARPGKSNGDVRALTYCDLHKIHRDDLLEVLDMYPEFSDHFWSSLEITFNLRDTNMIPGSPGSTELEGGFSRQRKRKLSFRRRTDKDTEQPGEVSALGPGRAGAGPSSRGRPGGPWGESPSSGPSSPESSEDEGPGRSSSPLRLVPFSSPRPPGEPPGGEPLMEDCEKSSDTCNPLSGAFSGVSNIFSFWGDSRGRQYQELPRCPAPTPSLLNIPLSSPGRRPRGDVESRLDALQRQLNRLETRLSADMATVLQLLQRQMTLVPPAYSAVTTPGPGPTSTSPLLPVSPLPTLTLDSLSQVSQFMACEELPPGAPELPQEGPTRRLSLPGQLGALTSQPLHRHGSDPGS
Cytochrome P450 3A4, sequence (P08684 whole entry): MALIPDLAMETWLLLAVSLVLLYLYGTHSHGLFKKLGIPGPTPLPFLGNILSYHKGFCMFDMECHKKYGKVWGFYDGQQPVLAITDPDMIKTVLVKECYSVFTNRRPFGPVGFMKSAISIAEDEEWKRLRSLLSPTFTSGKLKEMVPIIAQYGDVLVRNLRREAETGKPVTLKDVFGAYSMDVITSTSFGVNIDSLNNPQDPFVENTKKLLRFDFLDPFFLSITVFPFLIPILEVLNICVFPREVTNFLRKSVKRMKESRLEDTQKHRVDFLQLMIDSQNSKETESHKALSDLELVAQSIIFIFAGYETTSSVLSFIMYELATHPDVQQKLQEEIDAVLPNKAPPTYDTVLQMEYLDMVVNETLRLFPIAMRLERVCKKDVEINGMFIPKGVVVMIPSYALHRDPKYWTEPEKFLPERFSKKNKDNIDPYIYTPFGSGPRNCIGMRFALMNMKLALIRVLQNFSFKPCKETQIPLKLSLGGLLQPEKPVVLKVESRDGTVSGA
Cytochrome P450 2C9, sequence (P11712 whole entry): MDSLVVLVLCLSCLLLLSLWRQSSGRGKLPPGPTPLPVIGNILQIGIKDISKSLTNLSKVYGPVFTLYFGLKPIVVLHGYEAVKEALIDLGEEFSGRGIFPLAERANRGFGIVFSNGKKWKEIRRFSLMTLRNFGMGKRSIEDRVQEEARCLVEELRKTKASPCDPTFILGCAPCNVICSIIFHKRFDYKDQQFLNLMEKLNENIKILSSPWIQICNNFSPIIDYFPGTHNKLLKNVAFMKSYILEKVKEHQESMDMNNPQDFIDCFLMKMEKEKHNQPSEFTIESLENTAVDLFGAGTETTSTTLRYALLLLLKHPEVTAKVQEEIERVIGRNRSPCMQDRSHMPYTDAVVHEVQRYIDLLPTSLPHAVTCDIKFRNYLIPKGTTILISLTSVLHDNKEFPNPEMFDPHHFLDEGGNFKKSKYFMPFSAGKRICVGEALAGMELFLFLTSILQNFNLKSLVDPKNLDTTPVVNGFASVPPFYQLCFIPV
Cytochrome P450 2C19, sequence (P33261 whole entry): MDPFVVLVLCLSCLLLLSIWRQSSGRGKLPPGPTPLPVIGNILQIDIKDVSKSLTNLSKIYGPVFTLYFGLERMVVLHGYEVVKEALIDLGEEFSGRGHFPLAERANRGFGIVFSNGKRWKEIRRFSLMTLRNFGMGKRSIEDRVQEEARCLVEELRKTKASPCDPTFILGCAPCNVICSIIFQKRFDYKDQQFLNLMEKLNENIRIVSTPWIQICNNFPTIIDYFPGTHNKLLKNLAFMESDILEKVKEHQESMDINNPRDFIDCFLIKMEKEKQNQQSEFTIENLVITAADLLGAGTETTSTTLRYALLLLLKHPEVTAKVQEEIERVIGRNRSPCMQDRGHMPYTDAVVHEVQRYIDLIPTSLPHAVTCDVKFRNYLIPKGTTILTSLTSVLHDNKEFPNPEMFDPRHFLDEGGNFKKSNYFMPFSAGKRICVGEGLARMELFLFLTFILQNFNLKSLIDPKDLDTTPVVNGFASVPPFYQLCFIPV
Cytochrome P450 2D6, sequence (P10635 whole entry): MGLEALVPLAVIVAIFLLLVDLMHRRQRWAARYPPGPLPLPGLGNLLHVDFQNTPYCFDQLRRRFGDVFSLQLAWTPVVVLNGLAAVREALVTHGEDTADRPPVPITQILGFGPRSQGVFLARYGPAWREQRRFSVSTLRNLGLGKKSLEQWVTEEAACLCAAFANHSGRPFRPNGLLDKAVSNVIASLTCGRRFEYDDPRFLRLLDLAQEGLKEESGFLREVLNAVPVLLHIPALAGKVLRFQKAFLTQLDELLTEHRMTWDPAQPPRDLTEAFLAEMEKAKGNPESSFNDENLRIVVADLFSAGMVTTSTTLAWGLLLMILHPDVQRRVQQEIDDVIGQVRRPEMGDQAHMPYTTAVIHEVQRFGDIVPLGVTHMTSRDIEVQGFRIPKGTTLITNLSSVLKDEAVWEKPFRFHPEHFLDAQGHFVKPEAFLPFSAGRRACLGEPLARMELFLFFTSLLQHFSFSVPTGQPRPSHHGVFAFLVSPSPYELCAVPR

COc1cc2c(cc1OCC1CC1)CCN1CC(CC(C)C)C(O)CC21 (stereo not drawn)
remaining at 1 h, 1 µM [1]: 17.6% | Stability ([2]; microsomes, 1 h, 1 µM): 22.6% | remaining at 1 h, 1 µM [3]: 74.7% | CLint scaled at 1 µM [4]: 4.34 L/h/kg | CLint scaled at 1 µM [5]: 31.3 L/h/kg | CLint scaled at 1 µM [6]: 1.16 L/h/kg | IC50 [7]: 0.00599 µM | inhibition [8]: 99.2% | inhibition [9]: 96% | IC50 [10]: 0.0178 µM | half-life at 1 µM [11]: 128 min | t1/2 ([12]; microsomes, 1 h, 1 µM): 10.5 min | half-life at 1 µM [13]: 25.9 min

COc1cc2c(cc1OC)C1CC(O)(CO)C(CC(C)C)CN1CC2 (stereo not drawn)
CLint scaled at 1 µM [5]: 8.57 L/h/kg | CLint scaled at 1 µM [6]: 6.55 L/h/kg | IC50 [7]: 0.00802 µM | inhibition [8]: 99.7% | inhibition [9]: 99.1% | IC50 [10]: 0.00514 µM

COc1cc2c(cc1OC)[C@H]1C[C@@H](OC(=O)[C@@H](N)C(C)C)[C@H](CC(C)C)CN1CC2 [VALBENAZINE]
IC50 [14]: 1.7 µM

CCOc1cc2c(cc1OCCCF)CCN1CC(CC(C)C)C(O)CC21 (stereo not drawn)
IC50 [7]: 0.0566 µM

CCOc1cc2c(cc1OC)CCN1CC(CC(C)C)C(O)CC21 (stereo not drawn)
IC50 [7]: > 0.5 µM

CCOc1cc2c(cc1OCC1CC1)CCN1CC(CC(C)C)C(O)CC21 (stereo not drawn)
IC50 [7]: 0.0214 µM

CCCOc1cc2c(cc1OC(C)C)C1CC(O)C(CC(C)C)CN1CC2 (stereo not drawn)
IC50 [7]: > 0.5 µM

CCCOc1cc2c(cc1OCC)C1CC(O)C(CC(C)C)CN1CC2 (stereo not drawn)
remaining at 1 h, 1 µM [1]: 6.6% | remaining at 1 h, 1 µM [2]: 1.3% | remaining at 1 h, 1 µM [3]: 47.3% | CLint scaled at 1 µM [4]: 7.21 L/h/kg | CLint scaled at 1 µM [5]: 32.1 L/h/kg | CLint scaled at 1 µM [6]: 1.35 L/h/kg | IC50 [7]: 0.0125 µM | half-life at 1 µM [11]: 55.4 min | half-life at 1 µM ([12]; liver microsomes): 10.3 min | half-life at 1 µM [13]: 15.6 min

COCCCOc1cc2c(cc1OC)C1CC(O)C(CC(C)C)CN1CC2 (stereo not drawn)
inhibition [8]: 92.1% | inhibition [9]: 84.9% | IC50 [10]: 0.0649 µM

CCCOc1cc2c(cc1OC(C)C)CCN1CC(CC(C)C)C(O)CC21 (stereo not drawn)
IC50 [7]: > 0.5 µM

CCOc1cc2c(cc1OCCCF)C1CC(O)C(CC(C)C)CN1CC2 (stereo not drawn)
IC50 [7]: > 0.5 µM

COc1cc2c(cc1OCC(F)(F)F)CCN1CC(CC(C)C)C(O)CC21 (stereo not drawn)
remaining at 1 h, 1 µM [1]: 48.1% | remaining at 1 h, 1 µM [2]: 14.2% | remaining at 1 h, 1 µM [3]: 77.4% | CLint scaled at 1 µM [4]: 1.91 L/h/kg | CLint scaled at 1 µM [5]: 14.3 L/h/kg | CLint scaled at 1 µM [6]: 0.516 L/h/kg | inhibition [8]: 99.9% | inhibition [9]: 99.9% | Tmax [15]: 45 min | Cmax [16]: 1.4 µM | AUC(0-inf) [17]: 3.47 µM·h | Vd/F [18]: 10.8 L/kg | CL/F [19]: 3.2 L/h/kg | half-life [20]: 137 min | inhibition in vivo at 3 µmol/kg (Rattus norvegicus [21]): 64.7% | inhibition in vivo at 15 µmol/kg (Rattus norvegicus [22]): 93.7% | Drug uptake [23]: 458.2 nmol/kg | Kp at 6 h [24]: 2.21 | IC50 [14]: 6.51 µM | IC50 (Cytochrome P450 3A4): > 100 µM | IC50 (Cytochrome P450 2C9): > 100 µM | IC50 (Cytochrome P450 2D6): > 100 µM | IC50 (Cytochrome P450 2C19): > 100 µM | IC50 (Cytochrome P450 2B6): > 100 µM
